Source: patent US20230322722A1, “MODULATORS OF MYC FAMILY PROTO-ONCOGENE PROTEIN” (Nalo Therapeutics, priority 2020, published 2023)

Experiments:
Format in all cases: cell-based
MycN protein = target: T1, MycN protein (Homo sapiens, UniProt P04198); test: Degradation of MycN protein, Western blot, SKNBE2 cells (Example 160)
T1 construct: either 2×10^6 of L-363 (human leukemia cell line) or SKNBE2 (neuroblastoma cell line) cells; endogenous in cells; host or cells: SKNBE2 / SK-N-BE(2) neuroblastoma cells
T1 sequence (P04198 1-464): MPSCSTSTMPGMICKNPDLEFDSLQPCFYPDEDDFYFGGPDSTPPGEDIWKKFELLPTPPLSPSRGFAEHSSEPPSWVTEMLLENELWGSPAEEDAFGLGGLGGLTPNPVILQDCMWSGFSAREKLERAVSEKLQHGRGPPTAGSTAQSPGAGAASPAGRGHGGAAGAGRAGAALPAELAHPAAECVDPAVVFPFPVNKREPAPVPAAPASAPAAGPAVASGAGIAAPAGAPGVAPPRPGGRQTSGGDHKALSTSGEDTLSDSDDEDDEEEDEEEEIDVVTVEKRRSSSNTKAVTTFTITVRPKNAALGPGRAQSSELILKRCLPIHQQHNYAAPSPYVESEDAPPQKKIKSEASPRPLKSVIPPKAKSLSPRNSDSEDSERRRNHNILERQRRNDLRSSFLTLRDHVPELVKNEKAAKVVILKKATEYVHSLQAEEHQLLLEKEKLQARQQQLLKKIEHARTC
Method in brief: (§1)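 L-363 or SKNBE2 cells (passage <40, mostly <30) at 1×10^6 cells/mL in RPMI 1640/10% FBS were exposed 6 h to compound added from a 1 mM stock. RIPA lysates (25–30 ug protein) were analysed by SDS-PAGE and immunoblot with 1:500 primary antibody, with protein level quantified by band densitometry.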

MycC protein (c-myc) = target: T2, MycC protein (c-myc) (Homo sapiens, UniProt P01106); test: Degradation of MycC protein, 24 h treatment, JESS Western, L363 cells (Example 161); details: L-363 cells
T2 construct: either 2×10^6 of L-363 (human leukemia cell line) cells; endogenous in cells; host or cells: L-363 / L363 human leukemia cells
T2 sequence (P01106 whole entry): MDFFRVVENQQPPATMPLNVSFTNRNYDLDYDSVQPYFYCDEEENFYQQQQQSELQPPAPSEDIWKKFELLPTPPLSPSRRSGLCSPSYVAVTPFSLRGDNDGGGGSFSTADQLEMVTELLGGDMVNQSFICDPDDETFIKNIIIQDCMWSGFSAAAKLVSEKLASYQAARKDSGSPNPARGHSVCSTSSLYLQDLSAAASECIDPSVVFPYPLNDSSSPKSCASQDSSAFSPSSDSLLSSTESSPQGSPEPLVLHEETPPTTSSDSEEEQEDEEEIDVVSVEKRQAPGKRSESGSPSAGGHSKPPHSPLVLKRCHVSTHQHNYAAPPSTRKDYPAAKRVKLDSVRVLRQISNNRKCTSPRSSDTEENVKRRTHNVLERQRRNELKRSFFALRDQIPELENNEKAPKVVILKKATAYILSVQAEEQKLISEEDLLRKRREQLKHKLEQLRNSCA
Method in brief: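 L363 suspension cells were seeded at 1E6 per well and exposed to compound, prepared as 10 mM DMSO stocks, for 24 hrs. Cells were pelleted, washed with PBS and lysed on ice in RIPA buffer, and lysate protein was measured by BCA. c-myc was detected by JESS capillary Western in the chemiluminescence channel, normalised to tubulin and GAPDH loading controls read in the NIR channel against a DMSO control.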

MycN protein (n-myc) = target: T3, MycN protein (n-myc) (Homo sapiens, UniProt P04198); test: Degradation of MycN protein, 24 h treatment, JESS Western, SK-N-BE(2) cells (Example 161); details: SKNBE2 cells
T3 construct: either 2×10^6 of L-363 (human leukemia cell line) or SKNBE2 (neuroblastoma cell line) cells; endogenous in cells; host or cells: SKNBE2 / SK-N-BE(2) neuroblastoma cells
T3 sequence (P04198 1-464): T1 sequence (P04198 1-464)

MycC protein = target: T4, MycC protein (Homo sapiens, UniProt P01106); test: Degradation of MycC protein, Western blot, L-363 cells (Example 160); details: for inhibition at 2 µM: 6 h
T4 construct: either 2×10^6 of L-363 (human leukemia cell line) or SKNBE2 (neuroblastoma cell line) cells; endogenous in cells; host or cells: L-363 / L363 human leukemia cells
T4 sequence (P01106 whole entry): as above
Method in brief: as §1

| Compound | inhibition at 2 µM (MycN protein; SKNBE2, 6 h) | inhibition at 2 µM (MycC protein) | other results |
| --- | --- | --- | --- |
| CN1CC2(CC(N(C)c3nccc(Nc4cc(C5CC5)[nH]n4)n3)C2)C1 [Compound 7, N4-(5-cyclopropyl-1H-pyrazol-3-yl)-N2-methyl-N2-(2-methyl-2-azaspiro[3.3]heptan-6-yl)pyrimidine-2,4-diamine] | < 20% | 20 to 49% | inhibition at 0.5 µM (MycC protein (c-myc); 0.5 μM): < 20%; inhibition at 1 µM (MycC protein (c-myc); 1 μM): 20 to 49%; inhibition at 3 µM (MycC protein (c-myc); 3 μM): 50 to 79%; inhibition at 6 µM (MycC protein (c-myc); 6 μM): 80 to 100%; inhibition at 0.5 µM (MycN protein (n-myc); 0.5 μM): < 20%; inhibition at 1 µM (MycN protein (n-myc); 1 μM): < 20%; inhibition at 3 µM (MycN protein (n-myc); 3 μM): 20 to 49%; inhibition at 6 µM (MycN protein (n-myc); 6 μM): 80 to 100% |
| COc1ccc(C#N)cc1CC(=O)N[C@H]1CC[C@H](N(C)c2nccc(Nc3cc(C4CC4)[nH]n3)n2)CC1 [Compound 126, 2-(5-cyano-2-methoxyphenyl)-N-((1R,4R)-4-((4-((5-cyclopropyl-1H-pyrazol-3-yl)amino)pyrimidin-2-yl)(methyl)amino)cyclohexyl)acetamide] | < 20% | 80 to 100% |  |
| CN(c1nccc(Nc2cc(C3CC3)[nH]n2)n1)[C@H]1CC[C@H](NC(=O)Cc2cccc(C#N)n2)CC1 [Compound 125, 2-(6-cyanopyridin-2-yl)-N-((1R,4R)-4-((4-((5-cyclopropyl-1H-pyrazol-3-yl)amino)pyrimidin-2-yl)(methyl)amino)cyclohexyl)acetamide] | 80 to 100% | 80 to 100% |  |
| Cn1nnc2ccc(C(=O)N[C@H]3CC[C@H](N(C)c4nccc(Nc5cc(C6CC6)[nH]n5)n4)CC3)cc21 [Compound 151, N-((1R,4R)-4-((4-((5-cyclopropyl-1H-pyrazol-3-yl)amino)pyrimidin-2-yl)(methyl)amino)cyclohexyl)-1-methyl-1H-benzo[d][1,2,3]triazole-6-carboxamide] | 80 to 100% | 80 to 100% |  |
| CN(c1nccc(Nc2cc(C3CC3)[nH]n2)n1)C1CCC(CC(=O)NC2Cc3ccccc3C2)CC1 (stereo not drawn) [Compound 121, 2-(4-((4-((5-cyclopropyl-1H-pyrazol-3-yl)amino)pyrimidin-2-yl)(methyl)amino)cyclohexyl)-N-(2,3-dihydro-1H-inden-2-yl)acetamide] |  | 80 to 100% | inhibition at 2 µM (MycN protein; 6 h): 80 to 100% |
| Cc1cnc(CC(=O)NC2CCC(N(C)c3nccc(Nc4cc(C5CC5)[nH]n4)n3)CC2)cn1 [Compound 108, N-((1R,4R)-4-((4-((5-cyclopropyl-1H-pyrazol-3-yl)amino)pyrimidin-2-yl)(methyl)amino)cyclohexyl)-2-(5-methylpyrazin-2-yl)acetamide] | 50 to 79% | 80 to 100% |  |
| N-((1R,4R)-4-((4-((5-cyclopropyl-1H-pyrazol-3-yl)amino)pyrimidin-2-yl)(methyl)amino)cyclohexyl)-3-methylcyclopent-3-ene-1-sulfonamide [Compound 153] |  |  | % Degradation of MycN (SKNBE2) 6 h, 2 μM (MycN protein): **** (degradation 80-100%); % Degradation of MycC (L-363) 6 h, 2 μM (MycC protein): **** (degradation 80-100%) |
| Cn1nnc(C(=O)N[C@H]2CC[C@H](N(C)c3nccc(Nc4cc(C5CC5)[nH]n4)n3)CC2)n1 [Compound 122, N-((1R,4R)-4-((4-((5-cyclopropyl-1H-pyrazol-3-yl)amino)pyrimidin-2-yl)(methyl)amino)cyclohexyl)-2-methyl-2H-tetrazole-5-carboxamide] | 50 to 79% | 80 to 100% |  |
| CN(c1nccc(Nc2cc(C3CC3)[nH]n2)n1)C1CCC(CC(=O)Nc2cn(C3COC3)cn2)CC1 [Compound 133, 2-((1R,4R)-4-((4-((5-cyclopropyl-1H-pyrazol-3-yl)amino)pyrimidin-2-yl)(methyl)amino)cyclohexyl)-N-(1-(oxetan-3-yl)-1H-imidazol-4-yl)acetamide] | 80 to 100% | 80 to 100% |  |
| CC(C(=O)Nc1cccc(S(C)(=O)=O)c1)N1CCC(N(C)c2nccc(Nc3cc(C4CC4)[nH]n3)n2)CC1 (stereo not drawn) [Compound 9] |  | 80 to 100% | inhibition at 2 µM (MycN protein; 6 h): 80 to 100% |
| CN(c1cc(C2CC2)[nH]n1)c1ccnc(N(C)[C@H]2CC[C@H](NC(=O)C3CCc4ccccc43)CC2)n1 (stereo partly drawn) [Compound 109, N-((1R,4R)-4-((4-((5-cyclopropyl-1H-pyrazol-3-yl)(methyl)amino)pyrimidin-2-yl)(methyl)amino)cyclohexyl)-2,3-dihydro-1H-indene-1-carboxamide] | < 20% | 50 to 79% |  |
| Cn1ncc2cc(C(=O)N[C@H]3CC[C@H](N(C)c4nccc(Nc5cc(C6CC6)[nH]n5)n4)CC3)ccc21 [Compound 118, N-((1R,4R)-4-((4-((5-cyclopropyl-1H-pyrazol-3-yl)amino)pyrimidin-2-yl)(methyl)amino)cyclohexyl)-1-methyl-1H-indazole-5-carboxamide] | 50 to 79% | 80 to 100% |  |
| Cn1nnc(C(=O)N[C@H]2CC[C@H](N(C)c3nccc(Nc4cc(C5CCCC5)[nH]n4)n3)CC2)n1 [Compound 145, N-((1R,4R)-4-((4-((5-cyclopentyl-1H-pyrazol-3-yl)amino)pyrimidin-2-yl)(methyl)amino)cyclohexyl)-2-methyl-2H-tetrazole-5-carboxamide] | 50 to 79% | 80 to 100% |  |
| CN(c1nccc(Nc2cc(C3CC3)[nH]n2)n1)[C@H]1CC[C@H](NC(=O)c2cn(C3COC3)nn2)CC1 [Compound 149, N-((1R,4R)-4-((4-((5-cyclopropyl-1H-pyrazol-3-yl)amino)pyrimidin-2-yl)(methyl)amino)cyclohexyl)-1-(oxetan-3-yl)-1H-1,2,3-triazole-4-carboxamide] | 80 to 100% | 80 to 100% |  |
